Measured values: US20220389003A1, “4-SUBSTITUTED INDOLE AND INDAZOLE SULFONAMIDO DERIVATIVES AS PARG INHIBITORS” (IDEAYA BIOSCIENCES, INC., priority 2019, published 2022)

What was measured:
[1] = system: HCC1806-XRCC1 KD (knock down) cells; assay: Cellular viability assay (Cell Titer-Glo); assay type: cell-based; details: 96 h, HCC1806-shXRCC1 cells, 4 days of incubation, read-out: PARGi cell viability
Method: HCC1806-XRCC1 KD (knock down) cells were plated at 2000 cells/well in 96-well white plates with clear flat bottom. After 24 hours, the compounds of the disclosure were added starting at 30 μM for a 9-point dose response curve at 1:3 dilution. The compounds of the disclosure were added by Tecan digital dispenser excluding the outermost wells of the plate. All treatments were done in duplicates. After 4 days of incubation, 50 ul of Cell Titer-Glo (Promega) was added per well. After incubation with the reagent for 15 minutes, luminescence was read using a plate reader (TECAN). Average values of DMSO treated wells in a plate was calculated. All data points were normalized to that of the average DMSO value. The % of control for each sample compared to DMSO treated control samples. Curves are fit as % of control vs. log [compound concentration] using a 4 parameter inhibition model (Levenberg-Marquardt algorithm):
Fit=(A+((B−A)/(1+((C/x)^D))))

[2] = biological target: T1, PARG (Homo sapiens, UniProt Q86W56); assay: Inhibition of PARG enzymatic assay (TR-FRET enzymatic IC50 assay); assay type: biochemical; set-up: purchased Peak Proteins; details: hPARG 250 pM, biotinylated-PARylated PARP substrate 30 nM
In short: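 Compound preincubated 1 h with 250 pM His-tagged hPARG, then 30 nM biotinylated PARylated hPARP1 substrate added for 10 min; buffer 50 mM Tris-HCl pH 7.4, EDTA/EGTA, 1 mM DTT, 23° C. TR-FRET read after 1 h with anti-His ULight antibody and streptavidin-europium; inhibition scaled between DMSO and no-enzyme controls.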

[3] = biological target: T1, PARG; assay: Inhibition of PARG cellular assay (PAR foci in HeLa cells after MMS); assay type: cell-based; set-up: endogenous in cells; host or cells: HeLa; details: compound 1 h then MMS 1 h
In short: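 HeLa cells pretreated with compound for 1 h, then given MMS for a further 1 h, fixed and immunostained for PAR polymer. High-content imaging quantified nuclear PAR foci intensity (PAR Foci IC50) and percent cells with foci signal >1.3 (PAR % positive IC50).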

T1 sequence (Q86W56 whole entry): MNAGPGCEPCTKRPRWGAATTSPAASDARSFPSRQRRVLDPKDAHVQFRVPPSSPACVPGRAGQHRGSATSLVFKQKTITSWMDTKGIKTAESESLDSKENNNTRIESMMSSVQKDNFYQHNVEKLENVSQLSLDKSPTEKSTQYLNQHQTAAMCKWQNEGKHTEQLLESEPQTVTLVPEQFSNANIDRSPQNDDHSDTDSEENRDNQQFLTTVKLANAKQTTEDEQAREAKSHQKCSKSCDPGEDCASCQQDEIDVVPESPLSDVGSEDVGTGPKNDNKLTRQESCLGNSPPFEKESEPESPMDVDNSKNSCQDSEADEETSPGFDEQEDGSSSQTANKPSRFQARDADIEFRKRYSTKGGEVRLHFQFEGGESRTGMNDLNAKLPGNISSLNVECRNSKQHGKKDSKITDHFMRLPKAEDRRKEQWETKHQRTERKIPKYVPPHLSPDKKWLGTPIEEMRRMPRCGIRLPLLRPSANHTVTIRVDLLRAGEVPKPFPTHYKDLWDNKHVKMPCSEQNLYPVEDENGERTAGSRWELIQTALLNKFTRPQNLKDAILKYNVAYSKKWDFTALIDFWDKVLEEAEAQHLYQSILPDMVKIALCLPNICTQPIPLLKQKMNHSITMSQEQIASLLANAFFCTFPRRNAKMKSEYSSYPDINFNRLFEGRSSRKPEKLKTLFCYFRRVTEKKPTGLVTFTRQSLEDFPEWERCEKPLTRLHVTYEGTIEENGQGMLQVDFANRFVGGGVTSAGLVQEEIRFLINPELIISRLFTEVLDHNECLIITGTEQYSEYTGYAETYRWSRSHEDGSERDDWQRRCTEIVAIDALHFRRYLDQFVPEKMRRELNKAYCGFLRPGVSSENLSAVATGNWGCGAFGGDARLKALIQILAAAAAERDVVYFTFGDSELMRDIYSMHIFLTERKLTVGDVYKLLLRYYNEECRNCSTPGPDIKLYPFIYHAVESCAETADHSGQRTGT

IC50 [1] [nM] | IC50 [2] [nM] | IC50 [3] [nM] | SMILES
10000 to 20000 | 300 to 1000 | 1000 to 10000 | N#CC1(NS(=O)(=O)c2cc(-c3ccccn3)c3cnn(-c4nnc(C(F)F)s4)c3c2)CC1 [Example 14, 1-[({1-[5-(difluoromethyl)(1,3,4-thiadiazol-2-yl)]-4-(2-pyridyl)-1H-indazol-6-yl}sulfonyl)amino]cyclopropanecarbonitrile]
< 1000 | ≤ 100 | ≤ 100 | CC(C)C(=O)N1CCN(c2cc(S(=O)(=O)NC3(C#N)CC3)cc3c2cnn3-c2nnc(C(F)F)s2)C[C@H]1C [Example 82, 1-[({4-[(3R)-3-methyl-4-(2-methylpropanoyl)piperazinyl]-1-[5-(difluoromethyl) (1,3,4-thiadiazol-2-yl)]-1H-indazol-6-yl}sulfonyl)amino]cyclopropanecarbonitrile]
< 1000 | ≤ 100 | ≤ 100 | CCCN(C)C(=O)N1CCN(c2cc(S(=O)(=O)NC3(C#N)CC3)cc3c2cnn3-c2nnc(C(F)F)s2)CC1 [Example 77, [4-(1-[5-(difluoromethyl)(1,3,4-thiadiazol-2-yl)]-6-{[(cyanocyclopropyl)amino]sulfonyl}(1H-indazol-4-yl))piperazinyl]-N-methyl-N-propylcarboxamide]
< 1000 | ≤ 100 | ≤ 100 | CN(CC(F)F)C(=O)N1CCN(c2cc(S(=O)(=O)NC3(C#N)CC3)cc3c2cnn3-c2nnc(C(F)F)s2)CC1 [Example 67, N-(2,2-difluoroethyl)[4-(1-[5-(difluoromethyl)(1,3,4-thiadiazol-2-yl)]-6-{[(cyanocyclopropyl)amino]sulfonyl}(1H-indazol-4-yl))piperazinyl]-N-methylcarboxamide]
1000 to 10000 | 300 to 1000 | 300 to 1000 | N#CC1(NS(=O)(=O)c2cc(C3=CCC4(CC3)COC4)c3cnn(-c4nnc(C(F)F)s4)c3c2)CC1 [Example 7, 1-[({1-[5-(difluoromethyl)(1,3,4-thiadiazol-2-yl)]-4-(2-oxaspiro[3.5]non-6-en-7-yl)-1H-indazol-6-yl}sulfonyl)amino]cyclopropanecarbonitrile]
1000 to 10000 | ≤ 100 | ≤ 100 | CC(C)C(=O)N1[C@H](C)CN(c2cc(S(=O)(=O)NC3(C#N)CC3)cc3c2cnn3-c2nnc(C(F)F)s2)C[C@@H]1C [Example 89, 1-[({4-[cis-3,5-dimethyl-4-(2-methylpropanoyl)piperazinyl]-1-[5-(difluoromethyl)-(1,3,4-thiadiazol-2-yl)]-1H-indazol-6-yl}sulfonyl)amino]cyclopropanecarbonitrile]
1000 to 10000 | 300 to 1000 | 1000 to 10000 | N#CC1(NS(=O)(=O)c2cc(N3CCC4(CCCO4)CC3)c3cnn(-c4nnc(C(F)F)s4)c3c2)CC1 [Example 44, 1-[({1-[5-(difluoromethyl)(1,3,4-thiadiazol-2-yl)]-4-(1-oxa-8-azaspiro[4.5]dec-8-yl)-1H-indazol-6-yl}sulfonyl)amino]cyclopropanecarbonitrile]
1000 to 10000 | ≤ 100 | ≤ 100 | N#CC1(NS(=O)(=O)c2cc(N3CCN(C(=O)c4ccccn4)CC3)c3cnn(-c4nnc(C(F)F)s4)c3c2)CC1 [Example 87, 1-[({1-[5-(difluoromethyl)(1,3,4-thiadiazol-2-yl)]-4-[4-(2-pyridylcarbonyl)piperazinyl]-1H-indazol-6-yl}sulfonyl)amino]cyclopropanecarbonitrile]
1000 to 10000 | ≤ 100 | 300 to 1000 | CC(=O)N1CCN(c2cc(S(=O)(=O)NC3(C#N)CC3)cc3c2cnn3-c2nnc(C(F)F)s2)CC1 [Example 50, 1-[({4-(4-acetylpiperazinyl)-1-[5-(difluoromethyl)(1,3,4-thiadiazol-2-yl)]-1H-indazol-6-yl}sulfonyl)amino]cyclopropanecarbonitrile]
1000 to 10000 | ≤ 100 | ≤ 100 | CC(C)C(=O)N1CCN(c2cc(S(=O)(=O)NC3(C#N)CC3)cc3c2cnn3-c2nnc(C(F)F)s2)C[C@@H]1C [Example 88, 1-[({4-[(3S)-3-methyl-4-(2-methylpropanoyl)piperazinyl]-1-[5-(difluoromethyl) (1,3,4-thiadiazol-2-yl)]-1H-indazol-6-yl}sulfonyl)amino]cyclopropanecarbonitrile]
1000 to 10000 | ≤ 100 | 1000 to 10000 | CN1CCC(C(=O)N2CCN(c3cc(S(=O)(=O)NC4(C#N)CC4)cc4c3cnn4-c3nnc(C(F)F)s3)CC2)CC1 [Example 85, 1-{[(1-[5-(difluoromethyl)(1,3,4-thiadiazol-2-yl)]-4-{4-[(1-methyl(4-piperidyl))-carbonyl]piperazinyl}-1H-indazol-6-yl)sulfonyl]amino}cyclopropanecarbonitrile]
< 1000 | ≤ 100 | 100 to 300 | CCC(C)C(=O)N1CCN(c2cc(S(=O)(=O)NC3(C#N)CC3)cc3c2cnn3-c2nnc(C(F)F)s2)C[C@H]1C (stereo partly drawn) [Example 110, 1-[({4-[(3R)-3-methyl-4-(2-methylbutanoyl)piperazinyl]-1-[5-(difluoromethyl)-(1,3,4-thiadiazol-2-yl)]-1H-indazol-6-yl}sulfonyl)amino]cyclopropane carbonitrile]
1000 to 10000 | ≤ 100 | 100 to 300 | N#CC1(NS(=O)(=O)c2cc(N3CCN4C(=O)CC[C@@H]4C3)c3cnn(-c4nnc(C(F)F)s4)c3c2)CC1 [Example 60, 1-[({4-((1R)-7-oxo-3,6-diazabicyclo[4.3.0]non-3-yl)-1-[5-(difluoromethyl)(1,3,4-thiadiazol-2-yl)]-1H-indazol-6-yl}sulfonyl)amino]cyclopropanecarbonitrile]
< 1000 | ≤ 100 | ≤ 100 | C[C@H]1CN(c2cc(S(=O)(=O)NC3(C#N)CC3)cc3c2cnn3-c2nnc(C(F)F)s2)CCN1C(=O)N(C)C [Example 83, [(2S)-4-(1-[5-(difluoromethyl)(1,3,4-thiadiazol-2-yl)]-6-{[(cyanocyclopropyl)amino]sulfonyl}(1H-indazol-4-yl))-2-methylpiperazinyl]-N,N-dimethylcarboxamide]
< 1000 | ≤ 100 | ≤ 100 | Cn1ccnc1N1CCN(c2cc(S(=O)(=O)NC3(C#N)CC3)cc3c2cnn3-c2nnc(C(F)F)s2)CC1 [Example 69, 1-[({1-[5-(difluoromethyl)(1,3,4-thiadiazol-2-yl)]-4-[4-(1-methylimidazol-2-yl)piperazinyl]-1H-indazol-6-yl}sulfonyl)amino]cyclopropanecarbonitrile]
10000 to 20000 | 300 to 1000 | 300 to 1000 | CN(C)C(=O)N1CCN(c2cc(S(=O)(=O)NC3(C#N)CC3)cc3c2c(Cl)nn3-c2nnc(C(F)F)s2)CC1 [Example 115, [4-(1-[5-(difluoromethyl)(1,3,4-thiadiazol-2-yl)]-3-chloro-6-{[(cyanocyclopropyl)-amino]sulfonyl}(1H-indazol-4-yl))piperazinyl]-N,N-dimethylcarboxamide]
< 1000 | ≤ 100 | ≤ 100 | CCC(C)C(=O)N1CCN(c2cc(S(=O)(=O)NC3(C#N)CC3)cc3c2cnn3-c2nnc(C(F)F)s2)CC1 (stereo not drawn) [Example 113, 1-[({1-[5-(difluoromethyl)(1,3,4-thiadiazol-2-yl)]-4-[4-(2-methylbutanoyl)piperazinyl]-1H-indazol-6-yl}sulfonyl)amino]cyclopropanecarbonitrile]
1000 to 10000 | ≤ 100 | 100 to 300 | C[C@@H]1CN(c2cc(S(=O)(=O)NC3(C#N)CC3)cc3c2cnn3-c2nnc(C(F)F)s2)CCO1 [Example 26, 1-[({4-((2R)-2-methylmorpholin-4-yl)-1-[5-(difluoromethyl)(1,3,4-thiadiazol-2-yl)]-1H-indazol-6-yl}sulfonyl)amino]cyclopropanecarbonitrile]
1000 to 10000 | ≤ 100 | 300 to 1000 | N#CC1(NS(=O)(=O)c2cc(N3CCC(CO)CC3)c3cnn(-c4nnc(C(F)F)s4)c3c2)CC1 [Example 47, 1-[({1-[5-(difluoromethyl)(1,3,4-thiadiazol-2-yl)]-4-[4-(hydroxymethyl)piperidyl]-1H-indazol-6-yl}sulfonyl)amino]cyclopropanecarbonitrile]

SMILES | IC50 [1] [nM] | IC50 [2] [nM] | IC50 [3] [nM]
CC(C)C(=O)N1C2CC1CN(c1cc(S(=O)(=O)NC3(C#N)CC3)cc3c1cnn3-c1nnc(C(F)F)s1)C2 [Example 91, 1-[({1-[5-(difluoromethyl)(1,3,4-thiadiazol-2-yl)]-4-[6-(2-methylpropanoyl)-3,6-diazabicyclo[3.1.1]hept-3-yl]-1H-indazol-6-yl}sulfonyl)amino]cyclopropanecarbonitrile] | 20000 to 30000 | 1000 to 10000 | 1000 to 10000
